Tests used:
[1] = system: LPS-stimulated mouse macrophage RAW264.7 cells (小鼠巨噬细胞RAW264.7细胞); conditions: LPS-stimulated RAW264.7; earlier study of the applicant's group; read-out: IC50 (inhibition of NO production); cited from earlier work
[2] = biological target: T1, MAFF protein (MAFF蛋白) (Mus musculus, UniProt O54791); experiment: CETSA in RAW264.7 cells; format: cell-based; conditions: 40 μM, 4 h; 64-72 ℃
T1 construct: endogenous in cells; host or cells: RAW264.7

[3] = biological target: T2, MAFF (Mus musculus, UniProt O54791); experiment: DARTS in RAW264.7 lysate; format: binding; conditions: 10, 20 and 40 μM; Pronase 1:1000, 37 ℃ 15 min
T2 construct: endogenous in cells; host or cells: RAW264.7
T2 sequence (O54791 whole entry): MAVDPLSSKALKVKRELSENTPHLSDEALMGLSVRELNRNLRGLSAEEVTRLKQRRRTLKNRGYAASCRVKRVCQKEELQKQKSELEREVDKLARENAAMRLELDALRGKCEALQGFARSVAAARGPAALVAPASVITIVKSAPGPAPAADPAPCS

[4] = biological target: MAFF protein (MAFF蛋白) (Homo sapiens, UniProt Q9ULX9); experiment: Microscale thermophoresis (MST); format: binding
Chain of MAFF protein (MAFF蛋白) (Homo sapiens, UniProt Q9ULX9) (Q9ULX9 whole entry, species assumed): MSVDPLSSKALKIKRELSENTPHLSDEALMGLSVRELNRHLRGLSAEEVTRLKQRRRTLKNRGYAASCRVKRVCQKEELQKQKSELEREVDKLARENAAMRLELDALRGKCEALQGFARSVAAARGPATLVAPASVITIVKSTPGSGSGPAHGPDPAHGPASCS

[5] = system: LPS-stimulated mouse macrophage RAW264.7 cells, NO production (小鼠巨噬细胞RAW264.7细胞, 一氧化氮(NO)生成); experiment: Griess assay of NO production in LPS-stimulated RAW264.7 cells; format: cell-based

T1 sequence (O54791 whole entry): as the sequence (O54791 whole entry) above

C=C1CC[C@H]2[C@@H](/C=C(\C)C(=O)[C@@]3(OC(C)=O)C[C@H](C)[C@H](OC(=O)/C=C/c4ccccc4)[C@@H]3[C@H]1O)C2(C)C [2S,3S,4S,5R,9S,11R,15R)-15-acetoxy-3-cinnamoyloxy-5-hydroxy-14-oxolathyra-6(17),12E-diene]
IC50 [1]: 3 ± 1.1 µM

C=C1CC[C@H]2[C@@H](/C=C(\C)C(=O)[C@@]3(O)C[C@H](C)[C@H](O)[C@@H]3[C@H]1O)C2(C)C [Lathyrol]
thermal stability of MAFF protein [2]: 提高了MAFF蛋白的热稳定性 | degradation of MAFF by Pronase [3]: 降解程度显著降低 | Kd [4]: 20.9 ± 2.34 µM | IC50 ([5]; Mus musculus, RAW264.7, read-out: IC50 (inhibition of NO production)): 11.1 ± 1.14 µM | inhibition of LPS-stimulated NO production (in words) ([5]; RAW264.7, compound 3 h, then LPS 1 μg/mL 24 h): 良好的抑制作用
